3 molecules from patent US20110152169A1, “SPARC ANTI-INFLAMMATORY ACTIVITY AND USES THEREOF” (priority 2008, published 2011) can be followed below.

What all share (assay type): cell-based, human
For assay [1], the system named is NF-κB promoter. Briefly: NF-κB promoter luciferase reporter assay. The settings on record: SKOV3 and OVCAR3, concentration-dependent up to 5 nM.
In assay [2] the test system is OVCAR3. Briefly: Proliferation, CellTiter96 (MTS). The procedure: (§1) The proliferation of SKOV3 and OVCAR3 transduced or not with Ad-GFP or Ad-GFP-SPARC as described in Example 1, in response to MCP-1, was assessed using a commercially available CellTiter96 kit (Promega) according to the manufacturer' instructions. The number of proliferating cells was determined colorimetrically by measuring the absorbance at 590 nm (0D590) of the dissolved formazan product after the addition of 3 -(4,5 -dimethylthiazol-2-yl)-5-(3 -carboxymethoxyphenyl)-2-(4-sulfophenyl)-2H-tetrazolium (MTS) for 3 hours.
(§2) The proliferation and invasiveness of SKOV3 and OVCAR3 cells, transduced or not with Ad-GFP and Ad-GFP-SPARC, in response to PGE2, was determined as described in Example 3. The results shown in FIG. 5 are expressed as the mean±SEM of three independent experiments performed in quadruplicate (proliferation) or triplicate (invasion). *P<0.05, compared to the matched WT cells or Ad-GFP transduced cells. **P<0.05, compared to NS control cells.

Assay [3] deals with SKOV3. Briefly: Proliferation, CellTiter96 (MTS). The procedure: as §1, §2
Assay [4] relates to OVCAR3. Put plainly: Matrigel invasion assay. As to the method:
(§3) The invasiveness of SKOV3 and OVCAR3 transduced or not with Ad-GFP or Ad-GFP-SPARC as described in Example 1, in response to MCP-1, was assessed as previously described (Said et al., Am J Pathol, 167: 1739-52 (2005)). 1×10^5 cells per […] in the presence and absence of MCP-lwere added to the upper chamber of polycarbonate inserts ([…] pore size, Corning Costar, Corning, N.Y.) coated on ice with Growth factor—reduced Matrigel (BD Biosciences, Bedford, Mass.) diluted 1:3 in SFM. In some experiments, cells were pretreated with MCP-1 antibody (25 µg/ml) or its isotype control (50 μg/ml) for 30 minutes before stimulation. The bottom chambers contained complete growth medium. […] The migrated cells were counted in six fields after staining with hemacolor 3 stain (SOURCE?), using an inverted microscope equipped with a DFC 320 digital camera (Leica Microsystems, Wetzlar, Germany) under 200× magnification.
as §2

For assay [5], the system named is SKOV3. Briefly: Matrigel invasion assay. The procedure:
as §3, §2

The subject of assay [6] is 8-isoprostane. Briefly: 8-isoprostane level in conditioned medium, enzyme immunoassay.
Experimental: SKOV3 and OVCAR3 were treated as described in Example 6, and the level of 8-isoprostane was determined in the CM using a commercially available enzyme immunoassay kit (Cayman Inc.) according to the manufacturer's instructions.
In assay [7] the test system is MCP-1. Briefly: MCP-1 protein secreted in conditioned medium, ELISA. The following applies: 50 μM LPA.
Experimental: Ovarian cancer cell lines were transduced for 24 hours with adenovirus expressing GFP (Ad-GFP) or adenovirus expressing GFP and SPARC (Ad-GFP-SPARC) in complete growth medium at a multiplicity of infection of 15 to 25 as described previously (Said et al., Am J Pathol, 170: 1054-63 (2007)).
Confluent monolayers (−106 cells, serum starved overnight) of wild type (WT) human ovarian cancer cell lines SKOV3 or OVCAR3, were stimulated with 50 μM lysophosphatidic acid (LPA) for 24 hours in the presence and absence of SPARC (10 μg/ml). Similarly, adenovirus-transduced SKOV3 and OVCAR3 were stimulated with 50 [M LPA for 24 to 48 hours. Alternatively, adenovirus-transduced SKOV3 and OVCAR3 were seeded onto confluent monolayers or cocultured with Meso301 for 24 to 48 hours. MCP-1 protein secreted in the conditioned medium (CM) of SKOV3 and OVCAR3 was determined by ELISA using a commercially available kit (RayBioTech, Inc., Norcross, Ga.). Controls included cells that were not stimulated (NS) with LPA.
Assay [8] deals with MMP-2 and MMP-9. Put plainly: Gelatin zymography of conditioned media.
Experimental: Subconfluent monolayers of ovarian cancer cells, transduced or not with Ad-GFP and Ad-GFP-SPARC, were grown in six-well plates alone or in coculture with mesothelial cell monolayers and serum-starved in SFM overnight. U937 macrophages (2×10^6 cells/ml SFM) were cultured in 0.22-μm transwell chambers (Corning, Costar) alone, in cocultures without direct cell-cell contact with ovarian cancer cells, or in triple cultures with ovarian cancer cells and mesothelial cells for an additional 24 hours. LPA (50 μM) or exogenous SPARC (20 μg/ml) (SOURCE?) was included in some experiments. Cell culture conditioned media (CM) were collected, cleared by centrifugation, and concentrated five-fold using Centricon centrifugal filters (Millipore, Bedford, Mass.). […] CM equivalent to 200 μg of ovarian cancer cells, and/or U937 cells was analyzed by gelatin zymography as described previously (Said et al., Am J Pathol, 167: 1739-52 (2005)).
Assay [9] has as its system uPA. Put plainly: uPA activity in conditioned medium, colorimetric assay. The following applies: for inhibition of LPA-induced uPA activity: 24 hours.
Experimental: uPA activity in CM of confluent monolayers (˜10^6 cells) of serum-starved SKOV3 and OVCAR3 was measured in WT cells stimulated for 24 hours with LPA (50 μM) in the presence and absence of SPARC (10 μg/ml). uPA activity in adenovirus-transduced SKOV3 and OVCAR3 stimulated or not with LPA, or cocultured with Meso301 monolayers, U937 macrophages (added in 0.22-μm transwell inserts), or in triple-culture systems was also measured. uPA activity in CM was measured using a commercially available colorimetric assay kit (Chemicon) according to the manufacturer's instructions. […] The results are mean±SEM of a representative of three independent experiments, each performed in duplicate. *P<0.05, compared to nonstimulated WT or Ad-GFP cells. **P<0.05, compared to matched WT or Ad-GFP condition. #P<0.05, compared to coculture of ovarian cancer cells with either Meso301 or U937 in two-cell culture systems.
Assay [10] deals with PGE2. Put plainly: PGE2 level in conditioned medium, enzyme immunoassay.
Experimental: LPA (50 μM) or exogenous SPARC (20 μg/ml) (SOURCE?) was included in some experiments.
SKOV3 and OVCAR3 cells were treated as described in Example 6, and PGE2 level was determined in the CM using a commercially available enzyme immunoassay kit (Cayman Inc.) according to the manufacturer's instructions.
Assay [11] has as its system IL-6. Briefly: IL-6 in conditioned medium, ELISA. The settings on record: U937. The procedure: SKOV3 and OVCAR3 cells, transduced or not with Ad-GFP or Ad-GFP-SPARC, and U937 cells were cultured individually, in cocultures, or in triple cultures with Meso301 cells for twenty four hours, and the conditioned medium was assayed for IL-6 by ELISA as described in Example 1. The results shown in FIG. 3 represent the mean±SEM of one of three independent experiments, each performed in duplicate. *P<0.05, compared to matched WT or Ad-GFP. **P<0.05, compared to double cultures in the absence of mesothelial cells.

[12] abbreviates: either cell line (SKOV3, OVCAR3).

Turning to `CCCCC[C@H](O)/C=C/[C@H]1[C@H](O)CC(=O)[C@@H]1C/C=C\CCCC(=O)O` [PGE2, prostaglandin E2], the “PGE2-induced NF-κB activation” value in assay [1] is “approximately three”. The PGE2-stimulated proliferation entry in assay [2] and in [3] was “concentration dependent” in each case. Also, the “proinvasive effect of PGE2” value in assay [4] and in assay [5] was “concentration dependent” throughout.

Turning to lysophosphatidic acid [LPA], the entries for the “increase in 8-isoprostane production by LPA stimulation” value in [6] (OVCAR) and in assay [6] (SKOV3) were around 2.5 fold and around 2.2 fold, respectively. In assay [7] (SKOV3 and OVCAR3, 48 hours), the “increase of MCP-1 production after LPA stimulation” value is “nine”. In addition, in assay [8] (OVCAR3 CM, LPA 50 μM), the “levels of active MMP-9 after LPA stimulation” value is recorded as “significantly increased”. The “levels of pro- and active MMP-9 after LPA stimulation” value in assay [8] (SKOV3 CM, LPA 50 μM) is reported as “significantly increased”. For the same molecule, in assay [8] (U937 CM, LPA 50 μM), the “MMP-2 and MMP-9 activity after LPA” value is reported as “significantly increased”. Further, the “LPA-induced increase in uPA activity” value amounted to 4.5 fold in [9] (WT and Ad-GFP-transduced OVCAR3, LPA 50 μM); 4 fold in assay [9] (WT and Ad-GFP-transduced SKOV3, LPA 50 μM). Also, the increase in PGE2 production by LPA stimulation in assay [10] (SKOV3 and OVCAR) was determined as 14 fold.

B1: Secreted protein acidic and rich in cysteine (protein, listed as Homo sapiens)
chain: APQQEALPDETEVVEETVAEVTEVSVGANPVQVEVGEFDDGAEETEEEVVAENPCQNHHCKHGKVCELDENNTPMCVCQDPTSCPAPIGEFEKVCSNDNKTFDSSCHFFATKCTLEGTKKGHKLHLDYIGPCKYIPPCLDSELTEFPLRMRDWLKNVLVTLYERDEDNNLLTEKQKLRVKKIHENEKRLEAGDHPVELLARDFEKNYNMYIFPVHWQFGQLDQHPIDGYLSHTELAPLRAPLIPMEHCTTRFFETCDLDNDKYIALDEWAGCFGIKQKDIDKDLVI
notes: matrix-associated protein added to cultures at 10 or 20 μg/ml
As for B1, the “effect on IL-6 levels” value in assay [11] was “Neither exogenous SPARC nor overexpression of SPARC in U937 had any effect”. The “suppression of LPA-induced 8-isoprostane production” value in assay [6] (setting [12]) was “up to 26%”. For the same molecule, in [6] (serum starved SKOV3 and OVCAR3), the “decrease of basal 8-isoprostane (ROS) production” value turned out to be 70%. For the same molecule, the “inhibition of LPA-induced MCP-1 production” value in assay [7] (OVCAR3, 24 hours) is 59%; in assay [7] (OVCAR3, 48 hours), 30%; in [7] (SKOV3, 24 hours) it was 54%; in assay [7] (SKOV3, 48 hours) it was 43%. Also, the “LPA-induced activity of MMP-2 and MMP-9” value in assay [8] (U937 CM, SPARC 20 μg/ml) was “markedly decreased”. Also, the “attenuation of constitutive uPA activity in CM” value turned out to be 29% in assay [9] (OVCAR3) and 40% in assay [9] (SKOV3). Further, the “inhibition of LPA-induced uPA activity” value in [9] (OVCAR3, LPA 50 μM) was 36%; in assay [9] (SKOV3, LPA 50 μM) it was 76%. Also, the “suppression of LPA-induced PGE2 production” value in assay [10] (setting [12]) is 40%. Moreover, the “decrease of baseline production of PGE2” value in [10] (serum-starved SKOV3 and OVCAR3) is “up to 30%”.
